From article PMC4102551, “Screening and Characterisation of Antimicrobial Properties of Semisynthetic Betulin Derivatives” (PLoS ONE, 2014) come the findings set out here.

The test system of one data set is E. coli ATCC 25922. The data set can be described thus: Broth microdilution assay, E. coli. The data set is classed as cell-based, Escherichia coli. The note with it: for Inhibitory effect (%) E. coli ATCC 25922: 50 µM, 24 h, inhibition of growth, mean ± SD. The method, then: (§1) Clinically used antimicrobial agents were selected based on international guidelines for antimicrobial testing and were utilised as reference compounds in the antimicrobial assays. The compounds were purchased from Sigma, Fluka and ICN Biomedicals. Stock solutions of the reference compounds were prepared either in double distilled sterile MilliQ water or in DMSO. Water solutions were sterilised through a 0.22 µm filter (VWR International). […] During the primary screening, these reference compounds were used as positive controls at the determined MIC on every plate.
(§2) Gram-negative strains Escherichia coli (ATCC 25922), Enterobacter aerogenes (ATCC 13048) and Pseudomonas aeruginosa (ATCC 27853), Gram-positive strains Staphylococcus aureus (ATCC 25923) and Enterococcus faecalis (ATCC 29212), and fungal strain Candida albicans (ATCC 90028) were obtained from Microbiologics Inc., and used for the antimicrobial screening. Strains were selected according to the guidelines set for clinical laboratories by Clinical and Laboratory Standards Institute [CLSI, formerly National Committee on Clinical Laboratory Standards [22]] and the European Committee on Antimicrobial Susceptibility Testing (EUCAST). Bacterial strains were grown on Mueller Hinton II Agar (MHA) (BBL, BD) and Mueller Hinton II broth (MHB) (BBL, BD), whereas Candida was initiated on Sabouraud Dextrose Agar (SDA) (Difco, BD) plates. Media were prepared into MilliQ water according to manufacturer’s instruction and autoclaved at 121°C for 15 min. Bacteria were plated on MHA plates and incubated at 37°C for 16–18 h. Bacterial suspension for the assays was prepared by subculturing the bacteria into MHB and by incubating at 37°C for 16–20 h at 110 rpm prior to the assay. Candida strain was grown on SDA plates at 27°C for 16–18 h and suspended into sterile 0.9% saline for the assay.
(§3) Antimicrobial screening assays were performed by broth microdilution method following the guidelines of CLSI and EUCAST. Bacterial suspensions were prepared as mentioned earlier and diluted with MHB to obtain a final inoculum of 5×10^5 colony-forming units (cfu)/mL in the assay for all the bacteria (based on OD620 values previously calibrated against plate counts). Candida suspension was prepared into sterile 0.9% saline solution as stated earlier. […] Assays were carried out in clear 96-well microtitre plates and initiated by dispensing an equal volume of microbial suspension and sample solution diluted into the assay medium into the wells. The plates were incubated for 24 h at 37°C (for Candida the incubation was at 35°C for 48 h) with agitation. Absorbance was measured at 620 nm with Victor plate reader (Wallac 1420, Perkin Elmer) at 0, 4 and 24 h with the bacteria, and at 0, 24 and 48 h with Candida. The antimicrobial activity of the samples was calculated from the absorbance values by comparing to the controls, and expressed as a percentage inhibition of growth. All the betulin derivatives were first assayed at the single concentration of 50 µM (two separate experiments, each with three replicates). […] The MIC90 value was expressed as the lowest concentration of compound that inhibited the microbial growth by >90%. The MIC90 results are means of three replicates from two separate experiments.

A further data set has as its system P. aeruginosa ATCC 27853. The data set can be described thus: Broth microdilution assay, P. aeruginosa. The note with it: for Inhibitory effect (%) P. aeruginosa ATCC 27853: 50 µM, 24 h, inhibition of growth, mean ± SD. The data set is classed as cell-based, Pseudomonas aeruginosa. The method, then:
as §1, §2, §3

The test system of another data set is E. faecalis ATCC 29212. The data set can be described thus: Broth microdilution assay, E. faecalis. The data set is classed as cell-based, Enterococcus faecalis. The settings on record: 50 µM, 24 h, inhibition of growth, mean ± SD. The method, then: as §1, §2, §3
A further data set has as its system E. aerogenes ATCC 13048. The data set can be described thus: Broth microdilution assay, E. aerogenes. The data set is classed as cell-based, Enterobacter aerogenes. The settings on record: for Inhibitory effect (%) E. aerogenes ATCC 13048: 50 µM, 24 h, inhibition of growth, mean ± SD. The method, then: as §1, §2, §3
For the next data set, the system named is C. albicans ATCC 90028. The data set can be described thus: Broth microdilution assay, C. albicans. The data set is classed as cell-based, Candida albicans. The note with it: for Inhibitory effect (%) C. albicans ATCC 90028: 50 µM, 48 h at 35°C, inhibition of growth, mean ± SD. The method, then:
as §1, §2, §3

For the next data set, the system named is Huh-7 cells. The data set can be described thus: in vitro. The data set is classed as cell-based, human. The note with it: 50 µM, 24 h exposure, ATP content, 5% FBS. The method, then:
Huh-7 cells (derived from human hepatocellular carcinoma) were obtained as a gift from Prof. Ralf Bartenschlager (University of Heidelberg, Germany) and used for assessing the cytotoxicity against mammalian cells. HL cells (a heteroploid cell line used for propagating respiratory viruses) were used as a host cell line in the host-pathogen co-culture assay. […] Both cell lines were cultured at 37°C, 5% CO2 and 95% humidity.
The effect of the betulin derivatives on metabolic activity of Huh-7 cells was evaluated by measuring the intracellular ATP content of the cells after 24 h exposure to the compounds. In brief, cells were seeded at 20000 cells/well on white-walled microplates (PerkinElmer) and incubated at 37°C, 5% CO2 and 95% humidity. After culturing the cells overnight, the medium was replaced with the assay media (5% FBS) containing the sample and the cells were incubated for 24 h. Polymyxin B sulphate (15000 IU/mL) was used as a positive control. Following the incubation period, Promega’s CellTiter-Glo Cell Viability Assay was used to determine the intracellular ATP levels according to the manufacturer’s instructions. Cells were washed with 100 µL 6.7 mM PBS, pH 7.4 and 50 µL of fresh assay media and 50 µL of the CellTiter-Glo reagent were added into the wells. After 2 min shaking, followed by 10 min incubation at RT, luminometric signal was measured using Varioskan Flash plate reader (Thermo Fisher Scientific).

A further data set has as its system S. aureus ATCC 25923. The data set can be described thus: Broth microdilution assay, S. aureus. The data set is classed as cell-based, Staphylococcus aureus. The settings on record: 50 µM, 24 h, inhibition of growth, mean ± SD. The method, then: as §1, §2, §3
The mark [1] stands for this setting: lowest concentration inhibiting growth by >90%.

Converted amounts (≈) assume the structure as drawn. “And” between values parts separate entries of the source, which are not always exact repeats. Identical values can stand only once.

As to `C=C(C)[C@@H]1CC[C@]2(C=NO)CC[C@]3(C)[C@H](CC[C@@H]4[C@@]5(C)CCC(=NO)C(C)(C)[C@@H]5CC[C@]43C)[C@@H]12` [Compound 30], the “Inhibitory effect (%) E. coli ATCC 25922” value in the data set with E. coli ATCC 25922 is 7.9±6.1%. Besides, the “Inhibitory effect (%) P. aeruginosa ATCC 27853” value in the data set with P. aeruginosa ATCC 27853 amounted to 1.4±1.1%. Besides, the “Inhibitory effect (%) E. faecalis ATCC 29212” value in the data set with E. faecalis ATCC 29212 was 57% and 56.9±2.6%. The “Inhibitory effect (%) E. aerogenes ATCC 13048” value in the data set with E. aerogenes ATCC 13048 was 18.5±3.4%. Also, in the data set on C. albicans ATCC 90028, the “Inhibitory effect (%) C. albicans ATCC 90028” value is 13.9±8.8%. In the data set with Huh-7 cells, the “Cytotoxicity (%) Huh-7 cells” value was 42.4±5.4%. Besides, in the data set with S. aureus ATCC 25923, the “Inhibitory effect (%) S. aureus ATCC 25923” value was 5.1±6.0%.
With `C=C(C)C1CCC2(CO)CCC3(C)C(CCC4C5(C)CCC(OC(C)=O)C(C)(C)C5CCC43C)C12` (centres unmarked) [Compound 12], the “Inhibitory effect (%) E. coli ATCC 25922” value with E. coli ATCC 25922 came to 1.0±5.0%. The “Inhibitory effect (%) P. aeruginosa ATCC 27853” value with P. aeruginosa ATCC 27853 worked out at 1.8±1.2%. In addition, the “Inhibitory effect (%) E. faecalis ATCC 29212” value in the data set on E. faecalis ATCC 29212 came out at 54.7±7.9%. Also, in the data set on E. aerogenes ATCC 13048, the “Inhibitory effect (%) E. aerogenes ATCC 13048” value is reported as 14.5±1.3%. In the data set on C. albicans ATCC 90028, the “Inhibitory effect (%) C. albicans ATCC 90028” value is on record as -18.0±27.4%. For the same compound, in the data set on Huh-7 cells, the “Cytotoxicity (%) Huh-7 cells” value is given as 3.8±14.1%. Besides, in the data set with S. aureus ATCC 25923, the “Inhibitory effect (%) S. aureus ATCC 25923” value is listed as -16.3±7.4%.
For the compound `CC(C)C12CCC3(CO)CCC4(C)C(=C31)C(CC1C3(C)CCC(O)C(C)(C)C3CCC14C)n1c(=O)n(-c3ccccc3)c(=O)n12` (centres unmarked) [Compound 44], the “Inhibitory effect (%) E. coli ATCC 25922” value in the data set with E. coli ATCC 25922 was -1.0±0.3%. In the data set on P. aeruginosa ATCC 27853, the “Inhibitory effect (%) P. aeruginosa ATCC 27853” value came out at 3.3±1.1%. For the same compound, the “Inhibitory effect (%) E. faecalis ATCC 29212” value in the data set with E. faecalis ATCC 29212 stood at 57.1±7.1%. Moreover, the “Inhibitory effect (%) E. aerogenes ATCC 13048” value in the data set on E. aerogenes ATCC 13048 was 11.7±1.1%. Further, the “Inhibitory effect (%) C. albicans ATCC 90028” value in the data set with C. albicans ATCC 90028 is on record as -25.4±8.0%. Moreover, the “Cytotoxicity (%) Huh-7 cells” value in the data set on Huh-7 cells came to 2.8±5.3%. In the data set on S. aureus ATCC 25923, the “Inhibitory effect (%) S. aureus ATCC 25923” value is on record as 5.7±2.2%.
As to `CC(=O)OCC12CCC3(C(C)C)C1=C1C(CC4C5(C)CCC(OC(C)=O)C(C)(C)C5CCC4(C)C1(C)CC2)n1c(=O)n(-c2cccc(Cl)c2)c(=O)n13` (centres unmarked) [Compound 39], the “Inhibitory effect (%) E. coli ATCC 25922” value with E. coli ATCC 25922 is 4.4±2.7%. For the same compound, the “Inhibitory effect (%) P. aeruginosa ATCC 27853” value in the data set with P. aeruginosa ATCC 27853 was found to be 2.6±1.1%. In addition, the “Inhibitory effect (%) E. faecalis ATCC 29212” value in the data set with E. faecalis ATCC 29212 worked out at 69.1±4.9%. The “Inhibitory effect (%) E. aerogenes ATCC 13048” value in the data set with E. aerogenes ATCC 13048 is reported as 19.0±1.9%. For the same compound, the “Inhibitory effect (%) C. albicans ATCC 90028” value with C. albicans ATCC 90028 is given as 4.8±13.6%. In addition, in the data set on Huh-7 cells, the “Cytotoxicity (%) Huh-7 cells” value was 1.5±2.7%. Besides, in the data set on S. aureus ATCC 25923, the “Inhibitory effect (%) S. aureus ATCC 25923” value came to 5.7±0.8%.
`C=C(C)[C@@H]1CC[C@]2(C(=O)OC)CC[C@]3(C)[C@H](CC[C@@H]4[C@@]5(C)CCC(=O)C(C)(C)[C@@H]5CC[C@]43C)[C@@H]12` [Compound 25, methyl ester of betulonic acid]: the “Inhibitory effect (%) E. coli ATCC 25922” value in the data set with E. coli ATCC 25922 is -3.3±1.4%. For the same compound, the “Inhibitory effect (%) P. aeruginosa ATCC 27853” value in the data set on P. aeruginosa ATCC 27853 is 2.3±0.3%. Also, the “Inhibitory effect (%) E. aerogenes ATCC 13048” value in the data set with E. aerogenes ATCC 13048 was determined as 11.4±3.9%. Moreover, the “Inhibitory effect (%) C. albicans ATCC 90028” value in the data set with C. albicans ATCC 90028 is -30.0±17.3%. Moreover, the “Cytotoxicity (%) Huh-7 cells” value in the data set with Huh-7 cells was determined as 23.0±4.0%. Further, in the data set with S. aureus ATCC 25923, the “Inhibitory effect (%) S. aureus ATCC 25923” value is recorded as 2.5±1.3%.
As to Gentamycin [reference compound], in the data set with E. coli ATCC 25922 (setting [1]), the “MIC90 of positive control, E. coli” value was “(2 µg/mL)”. Besides, the “MIC90 of positive control, P. aeruginosa” value against P. aeruginosa ATCC 27853 (setting [1]) is “(8 µg/mL)”. Moreover, the “MIC90 of positive control, E. aerogenes” value in the data set with E. aerogenes ATCC 13048 (setting [1]) is listed as “(0.5 µg/mL)”.
Take `C[C@@H]1[C@H](O)[C@@H](C)/C=C/C=C/C=C/C=C/C=C/C=C/C=C/[C@H](O[C@@H]2O[C@H](C)[C@@H](O)[C@H](N)[C@@H]2O)C[C@@H]2O[C@](O)(C[C@@H](O)C[C@@H](O)[C@H](O)CC[C@@H](O)C[C@@H](O)CC(=O)O[C@H]1C)C[C@H](O)[C@H]2C(=O)O` [Amphotericin B, reference compound]: the MIC90 in the data set on C. albicans ATCC 90028 (Candida albicans, ATCC90028, lowest concentration inhibiting growth by >90%, read-out: MIC90 of positive control, C. albicans) amounted to 2 µg/mL (≈ 2.16 µM).
